Test results published in US5770611A, “Indole derivatives as 5HT1 -like agonists” (Pfizer Inc., priority 1994, dated 1998).

Columns and labels:
[1] = biological target: T1, "5-HT1 -like" receptor (dog isolated saphenous vein strip) (Canis lupus familiaris, UniProt P79250); assay: contraction of isolated dog saphenous vein strip ("5-HT1 -like" receptor agonist activity); type: cell-based; settings: for EC50: concentration causing 50% of the maximum contraction effected by the compound; for RELATIVE POTENCY EC50 (compound)/EC50 (5-HT): ratio to 5-HT (higher = less potent)
T1 construct: on dog isolated saphenous vein strip; from tissue; host or cells: dog isolated saphenous vein strip
T1 sequence (P79250 whole entry): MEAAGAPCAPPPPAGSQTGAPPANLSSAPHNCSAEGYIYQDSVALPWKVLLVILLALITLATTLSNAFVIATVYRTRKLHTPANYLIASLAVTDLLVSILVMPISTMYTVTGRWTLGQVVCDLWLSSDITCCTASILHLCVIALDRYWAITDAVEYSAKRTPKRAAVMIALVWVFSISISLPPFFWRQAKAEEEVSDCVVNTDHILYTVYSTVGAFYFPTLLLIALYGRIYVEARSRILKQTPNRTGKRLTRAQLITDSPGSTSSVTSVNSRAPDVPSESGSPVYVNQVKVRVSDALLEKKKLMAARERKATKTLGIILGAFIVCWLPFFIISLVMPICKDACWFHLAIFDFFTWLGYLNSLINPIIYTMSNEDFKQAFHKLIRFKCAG
Source text: The following Table illustrates the in vitro activities for a range of the compounds of the invention on dog isolated saphenous vein strip. EC50 represents the concentration of compound which causes 50% of the maximum contraction effected by it.

[2] = biological target: T1, "5-HT1 -like" receptor (dog isolated saphenous vein strip); settings: antagonism of the agonist-induced contraction; cited from earlier work

Row | SMILES | EC50 [1] [nM] | RELATIVE POTENCY EC50 (compound)/EC50 (5-HT) [1] | block of contraction of dog saphenous vein strip [2]
1 | CC(C)(O)CCc1ccc2[nH]cc(C[C@H]3CCCN3CC3CCN(Cc4ccccc4)C3)c2c1 (stereo partly drawn) [Example 1] | 620 | 11.0 | –
2 | CC(C)(O)CCc1ccc2[nH]cc(C[C@H]3CCCN3CC3CCCNC3=O)c2c1 (single isomer, unassigned) [Example 9B] | 1800 | 78 | –
3 | CC(C)(O)CCc1ccc2[nH]cc(C[C@H]3CCCN3C[C@H]3CCCN3S(C)(=O)=O)c2c1 [Example 5, 5-(3-Hydroxy-3-methyl-1-butyl)-3-[N-(N-methane-sulphonyl-2(R)-pyrrolidinylmethyl)-2(R)-pyrrolidinylmethyl]-1H-indole] | 180 | 2.4 | –
4 | CSc1ccc2c(c1)C(N1CCN(C)CC1)Cc1ccccc1S2 (stereo not drawn) [methiothepin] | – | – | This effect can be blocked by methiothepin
5 | CC(C)(O)CCc1ccc2[nH]cc(C[C@H]3CCCN3CC3CCCNC3=O)c2c1 (single isomer, unassigned) [Example 9A] | 3000 | 71 | –
